Source: ChEMBL document CHEMBL4804284
The source made the active and inactive calls. No cut-off for these calls is given here.

Assays:
[1] = biological target: Ankyrin repeat and protein kinase domain-containing protein 1 (Homo sapiens) (UniProt Q8NFD2); assay: Inhibition of DNA-tagged human ANKK1 assessed as percent of control at 50000 nM by qPCR analysis relative to control; design: scale not given: the % may be the effect or the level left
[2] = biological target: Cyclin-dependent kinase 11B (Homo sapiens) (UniProt P21127); assay: Inhibition of DNA-tagged human CDC2L1 assessed as percent of control at 50000 nM by qPCR analysis relative to control; design: scale not given: the % may be the effect or the level left
[3] = biological target: G protein-coupled receptor kinase 4 (Homo sapiens) (UniProt P32298); assay: Inhibition of DNA-tagged human GRK4 assessed as percent of control at 50000 nM by qPCR analysis relative to control; design: scale not given: the % may be the effect or the level left
[4] = biological target: Ribosomal protein S6 kinase alpha-6 (Homo sapiens) (UniProt Q9UK32); assay: Inhibition of DNA-tagged human N-terminal RSK4 kinase domain 1 assessed as percent of control at 50000 nM by qPCR analysis relative to control; design: scale not given: the % may be the effect or the level left
Chain of Ribosomal protein S6 kinase alpha-6 (Homo sapiens) (Q9UK32 whole entry, the tested form may be a part): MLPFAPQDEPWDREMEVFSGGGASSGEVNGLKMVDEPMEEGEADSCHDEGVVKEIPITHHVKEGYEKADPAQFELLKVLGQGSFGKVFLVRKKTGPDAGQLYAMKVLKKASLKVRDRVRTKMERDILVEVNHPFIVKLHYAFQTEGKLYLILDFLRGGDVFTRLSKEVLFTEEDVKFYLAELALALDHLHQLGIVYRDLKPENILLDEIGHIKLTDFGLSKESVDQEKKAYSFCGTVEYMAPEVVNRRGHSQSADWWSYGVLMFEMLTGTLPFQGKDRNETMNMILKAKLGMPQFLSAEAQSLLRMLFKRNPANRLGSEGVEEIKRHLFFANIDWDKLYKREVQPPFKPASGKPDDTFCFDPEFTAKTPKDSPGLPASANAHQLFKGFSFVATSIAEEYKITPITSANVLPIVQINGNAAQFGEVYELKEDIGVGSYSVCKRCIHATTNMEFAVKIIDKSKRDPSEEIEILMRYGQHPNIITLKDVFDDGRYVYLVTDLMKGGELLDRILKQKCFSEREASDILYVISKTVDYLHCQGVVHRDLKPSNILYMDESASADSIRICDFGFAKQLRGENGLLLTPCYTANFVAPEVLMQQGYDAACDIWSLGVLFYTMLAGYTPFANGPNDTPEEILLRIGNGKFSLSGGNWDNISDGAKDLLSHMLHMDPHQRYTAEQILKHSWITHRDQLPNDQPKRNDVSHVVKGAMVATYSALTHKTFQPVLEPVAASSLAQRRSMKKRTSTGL

[5] = biological target: Protein-tyrosine kinase 6 (Homo sapiens) (UniProt Q13882); assay: Inhibition of DNA-tagged human BRK assessed as percent of control at 50000 nM by qPCR analysis relative to control; design: scale not given: the % may be the effect or the level left
Chain of Protein-tyrosine kinase 6 (Homo sapiens) (Q13882 whole entry, looked up): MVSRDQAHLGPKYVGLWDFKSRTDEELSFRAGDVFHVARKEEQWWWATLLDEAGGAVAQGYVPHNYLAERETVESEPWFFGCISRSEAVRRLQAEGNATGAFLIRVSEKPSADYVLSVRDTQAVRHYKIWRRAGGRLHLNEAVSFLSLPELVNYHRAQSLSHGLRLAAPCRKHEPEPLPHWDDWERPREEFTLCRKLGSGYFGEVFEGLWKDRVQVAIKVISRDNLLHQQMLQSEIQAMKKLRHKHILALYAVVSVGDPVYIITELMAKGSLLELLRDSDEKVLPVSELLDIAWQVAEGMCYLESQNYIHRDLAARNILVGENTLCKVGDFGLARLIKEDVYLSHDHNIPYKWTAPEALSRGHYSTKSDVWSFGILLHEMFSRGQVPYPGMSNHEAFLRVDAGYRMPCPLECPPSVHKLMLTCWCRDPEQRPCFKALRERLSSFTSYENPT

[6] = biological target: Tyrosine-protein kinase Fes/Fps (Homo sapiens) (UniProt P07332); assay: Inhibition of DNA-tagged human FES assessed as percent of control at 50000 nM by qPCR analysis relative to control; design: scale not given: the % may be the effect or the level left
Chain of Tyrosine-protein kinase Fes/Fps (Homo sapiens) (P07332 whole entry): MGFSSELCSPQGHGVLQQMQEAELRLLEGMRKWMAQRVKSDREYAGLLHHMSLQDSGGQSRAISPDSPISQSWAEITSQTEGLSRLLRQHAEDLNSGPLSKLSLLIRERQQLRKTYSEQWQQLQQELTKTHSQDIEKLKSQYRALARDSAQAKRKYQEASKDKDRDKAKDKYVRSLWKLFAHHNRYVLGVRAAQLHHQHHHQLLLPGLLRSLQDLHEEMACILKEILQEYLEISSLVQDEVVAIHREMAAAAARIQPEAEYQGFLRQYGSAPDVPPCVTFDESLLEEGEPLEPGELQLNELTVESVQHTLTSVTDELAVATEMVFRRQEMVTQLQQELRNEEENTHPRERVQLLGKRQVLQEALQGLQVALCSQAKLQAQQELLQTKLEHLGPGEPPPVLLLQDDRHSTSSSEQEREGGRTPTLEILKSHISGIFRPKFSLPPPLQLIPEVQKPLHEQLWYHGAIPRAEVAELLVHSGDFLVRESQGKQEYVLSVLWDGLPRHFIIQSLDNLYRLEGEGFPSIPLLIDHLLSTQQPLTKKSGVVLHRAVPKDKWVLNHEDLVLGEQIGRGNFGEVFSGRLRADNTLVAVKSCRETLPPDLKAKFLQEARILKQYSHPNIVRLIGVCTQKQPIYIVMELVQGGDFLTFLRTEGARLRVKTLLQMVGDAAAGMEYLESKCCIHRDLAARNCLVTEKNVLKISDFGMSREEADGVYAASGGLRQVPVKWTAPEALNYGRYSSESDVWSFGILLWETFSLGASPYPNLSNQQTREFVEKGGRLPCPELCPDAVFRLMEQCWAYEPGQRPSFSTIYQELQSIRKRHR

[7] = biological target: Ephrin type-A receptor 8 (Homo sapiens) (UniProt P29322); assay: Inhibition of DNA-tagged human EPHA8 assessed as percent of control at 50000 nM by qPCR analysis relative to control; design: scale not given: the % may be the effect or the level left
U-266 = assay: Cytotoxicity against human U-266 cells at 0.1-100 uM assessed as decrease in cell viability relative to control; type: functional, cell-based
[8] = biological target: Mitogen-activated protein kinase 13 (Homo sapiens) (UniProt O15264); assay: Inhibition of DNA-tagged human p38-delta assessed as percent of control at 50000 nM by qPCR analysis relative to control; design: scale not given: the % may be the effect or the level left
[9] = biological target: Myosin light chain kinase family member 4 (Homo sapiens) (UniProt Q86YV6); assay: Inhibition of DNA-tagged human MYLK4 assessed as percent of control at 50000 nM by qPCR analysis relative to control; design: scale not given: the % may be the effect or the level left
[10] = biological target: Dual specificity protein kinase CLK2 (Homo sapiens) (UniProt P49760); assay: Inhibition of DNA-tagged human CLK2 assessed as percent of control at 50000 nM by qPCR analysis relative to control; design: scale not given: the % may be the effect or the level left
[11] = biological target: RAF proto-oncogene serine/threonine-protein kinase (Homo sapiens) (UniProt P04049); assay: Inhibition of DNA-tagged human RAF1 assessed as percent of control at 50000 nM by qPCR analysis relative to control; design: scale not given: the % may be the effect or the level left
[12] = biological target: Tyrosine-protein kinase ABL1 (Homo sapiens) (UniProt P00519); assay: Inhibition of DNA-tagged non-phosphorylated human ABL1 assessed as percent of control at 50000 nM by qPCR analysis relative to control; design: scale not given: the % may be the effect or the level left
[13] = biological target: Cyclin-dependent kinase 9 (Homo sapiens) (UniProt P50750); assay: Inhibition of DNA-tagged human CDK9 assessed as percent of control at 50000 nM by qPCR analysis relative to control; design: scale not given: the % may be the effect or the level left
[14] = biological target: Ephrin type-B receptor 4 (Homo sapiens) (UniProt P54760); assay: Inhibition of DNA-tagged human EPHB4 assessed as percent of control at 50000 nM by qPCR analysis relative to control; design: scale not given: the % may be the effect or the level left
[15] = biological target: Calcium/calmodulin-dependent protein kinase type 1G (Homo sapiens) (UniProt Q96NX5); assay: Inhibition of DNA-tagged human CAMK1G assessed as percent of control at 50000 nM by qPCR analysis relative to control; design: scale not given: the % may be the effect or the level left
[16] = biological target: Angiopoietin-1 receptor (Homo sapiens) (UniProt Q02763); assay: Inhibition of DNA-tagged human TIE2 assessed as percent of control at 50000 nM by qPCR analysis relative to control; design: scale not given: the % may be the effect or the level left
[17] = biological target: Mast/stem cell growth factor receptor Kit (Homo sapiens) (UniProt P10721); assay: Inhibition of DNA-tagged human KIT assessed as percent of control at 50000 nM by qPCR analysis relative to control; design: scale not given: the % may be the effect or the level left
[18] = biological target: Serine/threonine-protein kinase Nek2 (Homo sapiens) (UniProt P51955); assay: Inhibition of DNA-tagged human NEK2 assessed as percent of control at 50000 nM by qPCR analysis relative to control; design: scale not given: the % may be the effect or the level left
[19] = biological target: Death-associated protein kinase 2 (Homo sapiens) (UniProt Q9UIK4); assay: Inhibition of DNA-tagged human DAPK2 assessed as percent of control at 50000 nM by qPCR analysis relative to control; design: scale not given: the % may be the effect or the level left
[20] = biological target: Cytoplasmic tyrosine-protein kinase BMX (Homo sapiens) (UniProt P51813); assay: Inhibition of DNA-tagged human BMX assessed as percent of control at 50000 nM by qPCR analysis relative to control; design: scale not given: the % may be the effect or the level left
[21] = biological target: Mitogen-activated protein kinase kinase kinase 15 (Homo sapiens) (UniProt Q6ZN16); assay: Inhibition of DNA-tagged human MAP3K15 assessed as percent of control at 50000 nM by qPCR analysis relative to control; design: scale not given: the % may be the effect or the level left
Chain of Mitogen-activated protein kinase kinase kinase 15 (Homo sapiens) (Q6ZN16 whole entry): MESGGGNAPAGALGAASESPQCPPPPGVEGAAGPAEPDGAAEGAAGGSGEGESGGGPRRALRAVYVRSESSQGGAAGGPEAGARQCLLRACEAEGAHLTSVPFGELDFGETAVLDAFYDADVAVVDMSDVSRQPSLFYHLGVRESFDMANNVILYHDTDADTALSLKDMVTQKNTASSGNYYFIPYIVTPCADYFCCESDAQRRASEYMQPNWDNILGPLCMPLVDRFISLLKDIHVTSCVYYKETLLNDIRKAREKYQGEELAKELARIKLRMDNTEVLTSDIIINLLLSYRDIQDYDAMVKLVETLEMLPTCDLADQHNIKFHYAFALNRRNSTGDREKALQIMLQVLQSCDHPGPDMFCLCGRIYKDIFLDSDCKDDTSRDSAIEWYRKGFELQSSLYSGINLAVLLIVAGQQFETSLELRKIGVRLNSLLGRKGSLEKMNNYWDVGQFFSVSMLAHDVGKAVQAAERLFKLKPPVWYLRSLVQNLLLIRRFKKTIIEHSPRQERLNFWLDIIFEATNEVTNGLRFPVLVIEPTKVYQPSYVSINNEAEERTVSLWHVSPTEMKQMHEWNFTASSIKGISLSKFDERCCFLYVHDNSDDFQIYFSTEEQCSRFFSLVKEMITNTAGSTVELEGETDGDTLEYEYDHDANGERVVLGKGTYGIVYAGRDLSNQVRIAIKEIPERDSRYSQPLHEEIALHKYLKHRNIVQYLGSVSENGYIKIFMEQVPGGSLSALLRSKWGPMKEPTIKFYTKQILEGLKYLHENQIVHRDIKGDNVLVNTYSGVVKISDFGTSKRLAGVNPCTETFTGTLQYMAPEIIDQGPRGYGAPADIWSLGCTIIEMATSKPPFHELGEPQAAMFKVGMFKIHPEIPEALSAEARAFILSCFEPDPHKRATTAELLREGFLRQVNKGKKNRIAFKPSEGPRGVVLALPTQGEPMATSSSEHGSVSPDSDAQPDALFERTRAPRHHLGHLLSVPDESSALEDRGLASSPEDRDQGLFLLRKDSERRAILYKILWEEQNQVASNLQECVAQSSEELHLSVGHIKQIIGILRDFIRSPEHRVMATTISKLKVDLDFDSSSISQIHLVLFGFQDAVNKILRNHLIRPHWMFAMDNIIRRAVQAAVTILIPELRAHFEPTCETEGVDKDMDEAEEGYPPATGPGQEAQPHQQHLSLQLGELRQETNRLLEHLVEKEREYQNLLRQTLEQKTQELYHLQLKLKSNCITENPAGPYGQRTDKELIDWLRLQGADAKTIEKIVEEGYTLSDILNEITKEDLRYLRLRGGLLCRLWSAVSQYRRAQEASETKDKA

[22] = biological target: Serine/threonine-protein kinase MARK1 (Homo sapiens) (UniProt Q9P0L2); assay: Inhibition of DNA-tagged human MARK1 assessed as percent of control at 50000 nM by qPCR analysis relative to control; design: scale not given: the % may be the effect or the level left
[23] = biological target: Mitogen-activated protein kinase kinase kinase 11 (Homo sapiens) (UniProt Q16584); assay: Inhibition of DNA-tagged human MLK3 assessed as percent of control at 50000 nM by qPCR analysis relative to control; design: scale not given: the % may be the effect or the level left
[24] = biological target: Dual specificity mitogen-activated protein kinase kinase 5 (Homo sapiens) (UniProt Q13163); assay: Inhibition of DNA-tagged human MEK5 assessed as percent of control at 50000 nM by qPCR analysis relative to control; design: scale not given: the % may be the effect or the level left
Chain of Dual specificity mitogen-activated protein kinase kinase 5 (Homo sapiens) (Q13163 whole entry): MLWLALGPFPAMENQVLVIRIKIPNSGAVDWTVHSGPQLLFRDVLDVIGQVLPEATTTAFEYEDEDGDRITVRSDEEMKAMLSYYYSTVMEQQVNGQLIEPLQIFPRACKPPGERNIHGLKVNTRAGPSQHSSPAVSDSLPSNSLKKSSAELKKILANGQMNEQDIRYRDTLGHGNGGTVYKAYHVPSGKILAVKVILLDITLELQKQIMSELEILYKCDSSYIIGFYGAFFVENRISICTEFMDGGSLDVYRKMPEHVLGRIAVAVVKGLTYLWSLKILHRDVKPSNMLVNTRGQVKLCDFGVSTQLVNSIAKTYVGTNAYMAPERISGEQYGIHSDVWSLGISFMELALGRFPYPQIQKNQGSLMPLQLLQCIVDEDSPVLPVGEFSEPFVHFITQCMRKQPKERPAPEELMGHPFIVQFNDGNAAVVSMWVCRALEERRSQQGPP

[25] = biological target: Mitogen-activated protein kinase 1 (Homo sapiens) (UniProt P28482); assay: Inhibition of DNA-tagged human ERK2 assessed as percent of control at 50000 nM by qPCR analysis relative to control; design: scale not given: the % may be the effect or the level left
Chain of Mitogen-activated protein kinase 1 (Homo sapiens) (P28482 whole entry): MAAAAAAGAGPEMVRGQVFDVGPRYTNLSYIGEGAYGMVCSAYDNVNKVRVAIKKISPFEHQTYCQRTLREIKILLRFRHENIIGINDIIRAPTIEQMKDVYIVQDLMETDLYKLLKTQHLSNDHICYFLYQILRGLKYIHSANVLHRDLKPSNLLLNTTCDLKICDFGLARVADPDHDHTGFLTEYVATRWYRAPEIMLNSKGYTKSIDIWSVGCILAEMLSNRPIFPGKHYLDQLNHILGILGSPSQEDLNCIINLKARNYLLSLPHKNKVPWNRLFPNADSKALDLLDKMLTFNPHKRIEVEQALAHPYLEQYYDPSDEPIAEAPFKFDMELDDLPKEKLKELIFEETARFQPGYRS

[26] = biological target: Tyrosine-protein kinase Fyn (Homo sapiens) (UniProt P06241); assay: Inhibition of DNA-tagged human FYN assessed as percent of control at 50000 nM by qPCR analysis relative to control; design: scale not given: the % may be the effect or the level left
[27] = biological target: Ribosomal protein S6 kinase alpha-6 (Homo sapiens) (UniProt Q9UK32); assay: Inhibition of DNA-tagged human C-terminal RSK4 kinase domain 2 assessed as percent of control at 50000 nM by qPCR analysis relative to control; design: scale not given: the % may be the effect or the level left
[28] = biological target: Serine/threonine-protein kinase 26 (Homo sapiens) (UniProt Q9P289); assay: Inhibition of DNA-tagged human MST4 assessed as percent of control at 50000 nM by qPCR analysis relative to control; design: scale not given: the % may be the effect or the level left
[29] = biological target: Inhibitor of nuclear factor kappa-B kinase subunit epsilon (Homo sapiens) (UniProt Q14164); assay: Inhibition of DNA-tagged human IKK-epsilon assessed as percent of control at 50000 nM by qPCR analysis relative to control; design: scale not given: the % may be the effect or the level left
[30] = biological target: Serine/threonine-protein kinase 32A (Homo sapiens) (UniProt Q8WU08); assay: Inhibition of DNA-tagged human YANK1 assessed as percent of control at 50000 nM by qPCR analysis relative to control; design: scale not given: the % may be the effect or the level left

Chain of Ankyrin repeat and protein kinase domain-containing protein 1 (Homo sapiens) (Q8NFD2 whole entry, the tested form may be a part): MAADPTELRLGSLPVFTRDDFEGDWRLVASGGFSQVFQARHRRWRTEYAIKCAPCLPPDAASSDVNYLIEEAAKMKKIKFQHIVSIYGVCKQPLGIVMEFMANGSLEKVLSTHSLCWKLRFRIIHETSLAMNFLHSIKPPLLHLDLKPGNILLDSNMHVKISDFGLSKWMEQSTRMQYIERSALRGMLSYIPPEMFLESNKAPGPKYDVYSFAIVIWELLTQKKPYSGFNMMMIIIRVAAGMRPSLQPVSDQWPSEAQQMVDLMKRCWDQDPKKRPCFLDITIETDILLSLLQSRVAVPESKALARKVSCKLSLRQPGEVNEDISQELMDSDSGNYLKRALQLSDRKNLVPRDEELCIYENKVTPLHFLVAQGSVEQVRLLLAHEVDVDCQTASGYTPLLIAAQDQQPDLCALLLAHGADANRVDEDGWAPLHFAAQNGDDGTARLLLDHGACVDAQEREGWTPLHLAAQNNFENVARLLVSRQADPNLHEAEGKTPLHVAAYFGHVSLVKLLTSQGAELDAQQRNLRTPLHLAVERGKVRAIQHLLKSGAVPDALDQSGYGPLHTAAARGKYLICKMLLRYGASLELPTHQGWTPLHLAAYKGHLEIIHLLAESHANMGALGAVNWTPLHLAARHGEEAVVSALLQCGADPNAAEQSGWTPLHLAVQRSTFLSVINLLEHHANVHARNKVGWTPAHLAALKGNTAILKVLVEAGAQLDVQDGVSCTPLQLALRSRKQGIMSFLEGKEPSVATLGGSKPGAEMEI

For CN1C(=O)/C(=C2/C(=O)Nc3ccccc32)c2ccccc21, the Activity [1] was 81%, the Activity [2] was 87% and the Activity [3] was 100%. For the same compound, the Activity [4] was 99%, the Activity [5] was 100% and the Activity [6] was 95%. The Activity [7] was 94%, the Activity (U-266) was “Active” and the Activity [8] was 100%. For the same compound, the Activity [9] was 87%, the Activity [10] was 75% and the Activity [11] was 100%. It also gave an Activity [12] of 100%, an Activity [13] of 84% and an Activity [14] of 98%. The Activity [15] was 85%, the Activity [16] was 100% and the Activity [17] was 94%. For the same compound, the Activity [18] was 100%, the Activity [19] was 85% and the Activity [20] was 89%. For the same compound, the Activity [21] was 69%, the Activity [22] was 92% and the Activity [23] was 71%. The Activity [24] was 97%, the Activity [25] was 100% and the Activity [26] was 100%. For the same compound, the Activity [27] was 71%, the Activity [28] was 100% and the Activity [29] was 100%. For the same compound, the Activity [30] was 99%.
